The nature of data set [1]: Octanol-water partition coefficient, log P of the compound. The class given is physicochemical. Conditions: read-out: logP.
The subject of data set [2] is Nitrosomonas europaea. Put plainly: Inhibition of Nitrosomonas europaea ATCC 25978-mediated nitrification activity assessed as nitrite nitrogen formation at 0.1 mg/kg after 7 to 10 days by Griess-Ilosvay method relative to control. In kind it is functional. The following applies: values are per cent of control. In general terms: Nitrite, measured by Griess reagent, commonly stands in for NO production.

Data set [3] has as its system Nitrosomonas europaea. Put plainly: Inhibition of Nitrosomonas europaea ATCC 25978-mediated nitrification activity assessed as nitrite nitrogen formation after 7 to 10 days by Griess-Ilosvay method. In kind it is functional, organism-based. The following applies: read-out: pI50 (converted).
The test system of data set [4] is Nitrosomonas sp. TK794. Nature of the data set: Inhibition of Nitrosomonas sp. TK794-mediated nitrification activity assessed as nitrite nitrogen formation at 1 mg/kg after 7 to 10 days by Griess-Ilosvay method relative to control. In kind it is functional.
For data set [5], the system named is Nitrosomonas europaea. Nature of the data set: Inhibition of Nitrosomonas europaea ATCC 25978-mediated nitrification activity assessed as nitrite nitrogen formation at 1 mg/kg after 7 to 10 days by Griess-Ilosvay method relative to control. In kind it is functional. Conditions: values are per cent of control.
For data set [6], the system named is Nitrosomonas sp. TK794. Nature of the data set: Inhibition of Nitrosomonas sp. TK794-mediated nitrification activity assessed as nitrite nitrogen formation at 5 mg/kg after 7 to 10 days by Griess-Ilosvay method relative to control. The class given is functional.
Data set [7] concerns Nitrosomonas sp. TK794. Nature of the data set: Inhibition of Nitrosomonas sp. TK794-mediated nitrification activity assessed as nitrite nitrogen formation at 200 mg/kg after 7 to 10 days by Griess-Ilosvay method relative to control. The class given is functional.
Data set [8] concerns Nitrosomonas europaea. Nature of the data set: Inhibition of Nitrosomonas europaea ATCC 25978-mediated nitrification activity assessed as nitrite nitrogen formation at 10 mg/kg after 7 to 10 days by Griess-Ilosvay method relative to control. The class given is functional.
Data set [9] has as its system Nitrosomonas sp. TK794. Put plainly: Inhibition of Nitrosomonas sp. TK794-mediated nitrification activity assessed as nitrite nitrogen formation at 0.5 mg/kg after 7 to 10 days by Griess-Ilosvay method relative to control. In kind it is functional.
Data set [10] deals with Nitrosomonas europaea. Put plainly: Inhibition of Nitrosomonas europaea ATCC 25978-mediated nitrification activity assessed as nitrite nitrogen formation at 0.5 mg/kg after 7 to 10 days by Griess-Ilosvay method relative to control. In kind it is functional. Conditions: values are per cent of control.

What is called logP is a log measure of how a compound divides between an organic and an aqueous phase. The residual activity is the share of the control activity or signal that is left under treatment. As a reminder, the inhibition in vivo is how much of the control response was suppressed. Turning to `COc1nc(-c2ccccc2)nc(C(Cl)(Cl)Cl)n1`, the logP in data set [1] came to 5.17. In addition, the residual activity at 0.1 mg/kg with Nitrosomonas europaea [2] stood at 31.4%. For the same compound, in the data set with Nitrosomonas europaea [3], the IC50 was 229 nM. Further, in the data set with Nitrosomonas sp. TK794 [4], the inhibition in vivo at 1 mg/kg stood at 39%.
As for `CCOc1nc(-c2ccccc2)nc(C(Cl)(Cl)Cl)n1`, the residual activity at 1 mg/kg in the data set on Nitrosomonas europaea [5] was 31.4%. Also, the logP in data set [1] is 5.7. In addition, the IC50 in the data set with Nitrosomonas europaea [3] is 1050 nM. Further, the inhibition in vivo at 1 mg/kg in the data set on Nitrosomonas sp. TK794 [4] came out at 51.2%.
Regarding `CCCOc1nc(-c2ccccc2)nc(C(Cl)(Cl)Cl)n1`, in the data set on Nitrosomonas sp. TK794 [6], the inhibition in vivo at 5 mg/kg was 47.9%. Moreover, in the data set on Nitrosomonas europaea [5], the residual activity at 1 mg/kg was 48.5%. For the same compound, the logP in data set [1] was found to be 6.22. For the same compound, the IC50 with Nitrosomonas europaea [3] was 3390 nM.
On to `CCOc1nc(SC)nc(C(Cl)(Cl)Cl)n1`, for which the logP in data set [1] worked out at 4.64. Further, the residual activity at 0.1 mg/kg with Nitrosomonas europaea [2] was determined as 64.8%. The IC50 in the data set on Nitrosomonas europaea [3] was 676 nM. For the same compound, the inhibition in vivo at 1 mg/kg in the data set on Nitrosomonas sp. TK794 [4] came to 60%.
In the same order, the values of `CCCOc1nc(SC)nc(C(Cl)(Cl)Cl)n1` are 5.17, 47.6%, 257 nM and 60%.
Regarding `ClC(Cl)(Cl)c1nc(-c2ccccc2)nc(C(Cl)(Cl)Cl)n1`, in the data set on Nitrosomonas sp. TK794 [7], the inhibition in vivo at 200 mg/kg was found to be 65.8%. The logP in data set [1] came to 5.26.
Regarding `Nc1nc(C(Cl)(Cl)Cl)nc(C(Cl)(Cl)Cl)n1`, the logP in [1] amounted to 2.45. Moreover, the inhibition in vivo at 1 mg/kg in the data set with Nitrosomonas sp. TK794 [4] was determined as 56.2%.
As for `CNc1nc(C(Cl)(Cl)Cl)nc(C(Cl)(Cl)Cl)n1`, the logP in [1] came out at 3.14. Further, in the data set on Nitrosomonas europaea [2], the residual activity at 0.1 mg/kg turned out to be 69.6%. Also, the IC50 with Nitrosomonas europaea [3] is 589 nM.
Turning to `CCNc1nc(C(Cl)(Cl)Cl)nc(C(Cl)(Cl)Cl)n1`, the logP in data set [1] stood at 3.68. For the same compound, the residual activity at 0.1 mg/kg with Nitrosomonas europaea [2] turned out to be 52.7%. Besides, the IC50 in the data set on Nitrosomonas europaea [3] was 257 nM.
For `CCCNc1nc(C(Cl)(Cl)Cl)nc(C(Cl)(Cl)Cl)n1` the same measures were 4.19, 60% and 219 nM.
In the case of `CCCCNc1nc(C(Cl)(Cl)Cl)nc(C(Cl)(Cl)Cl)n1`, in data set [1], the logP was 4.72. The residual activity at 0.1 mg/kg with Nitrosomonas europaea [2] is 72.4%. For the same compound, the IC50 in the data set on Nitrosomonas europaea [3] is 977 nM.
Turning to `CCCCCNc1nc(C(Cl)(Cl)Cl)nc(C(Cl)(Cl)Cl)n1`, the logP in [1] was determined as 5.25. The residual activity at 0.1 mg/kg in the data set with Nitrosomonas europaea [2] was 67.1%. Further, in the data set on Nitrosomonas europaea [3], the IC50 was 1230 nM.
For `CCCCCCNc1nc(C(Cl)(Cl)Cl)nc(C(Cl)(Cl)Cl)n1`, the residual activity at 1 mg/kg in the data set on Nitrosomonas europaea [5] came out at 42.7%. For the same compound, in data set [1], the logP was 5.79. Moreover, the IC50 in the data set with Nitrosomonas europaea [3] is 1660 nM.
With `CCCCCCCCCCNc1nc(C(Cl)(Cl)Cl)nc(C(Cl)(Cl)Cl)n1`, the inhibition in vivo at 10 mg/kg in the data set on Nitrosomonas europaea [8] was 36.8%. Also, the logP in data set [1] turned out to be 7.9. Moreover, the IC50 in the data set with Nitrosomonas europaea [3] is 10500 nM.
On to `ClC(Cl)(Cl)c1nc(Nc2ccccc2)nc(C(Cl)(Cl)Cl)n1`, for which the logP in data set [1] was found to be 4.33. Also, the inhibition in vivo at 0.5 mg/kg in the data set with Nitrosomonas sp. TK794 [9] was determined as 55%.
In the same order, the values of `CN(C)c1nc(C(Cl)(Cl)Cl)nc(C(Cl)(Cl)Cl)n1` are 3.7 and 60.5%.
On to `COc1nc(C(Cl)(Cl)Cl)nc(C(Cl)(Cl)Cl)n1`, for which the logP in data set [1] worked out at 3.59. The residual activity at 0.1 mg/kg with Nitrosomonas europaea [2] worked out at 27.4%. Also, the IC50 with Nitrosomonas europaea [3] is 457 nM. Moreover, the inhibition in vivo at 1 mg/kg with Nitrosomonas sp. TK794 [4] was 47.8%.
Consider `CCOc1nc(C(Cl)(Cl)Cl)nc(C(Cl)(Cl)Cl)n1`, for which the residual activity at 1 mg/kg in the data set with Nitrosomonas europaea [5] is 27.3%. Also, the logP in data set [1] was found to be 4.14. Moreover, the IC50 with Nitrosomonas europaea [3] was 437 nM. In the data set on Nitrosomonas sp. TK794 [4], the inhibition in vivo at 1 mg/kg was found to be 25.8%.
For the compound `Fc1ccc(Oc2nc(C(Cl)(Cl)Cl)nc(C(Cl)(Cl)Cl)n2)c(Cl)c1`, the logP in [1] worked out at 5.74. Besides, the IC50 with Nitrosomonas europaea [3] is 1100 nM. In addition, the residual activity at 0.5 mg/kg with Nitrosomonas europaea [10] was found to be 52.2%. Besides, in the data set on Nitrosomonas sp. TK794 [4], the inhibition in vivo at 1 mg/kg came out at 57.8%.
In the case of `CSc1nc(C(Cl)(Cl)Cl)nc(C(Cl)(Cl)Cl)n1`, the logP in data set [1] turned out to be 4.21. Moreover, the IC50 with Nitrosomonas europaea [3] was 186 nM. For the same compound, the residual activity at 0.5 mg/kg with Nitrosomonas europaea [10] is 18.7%. Besides, in the data set with Nitrosomonas sp. TK794 [9], the inhibition in vivo at 0.5 mg/kg is 41.3%.
As to `CCCCc1nc(C(Cl)(Cl)Cl)nc(C(Cl)(Cl)Cl)n1`, the residual activity at 1 mg/kg in the data set with Nitrosomonas europaea [5] was found to be 29.5%. The logP in data set [1] was determined as 5.65. In addition, the IC50 in the data set with Nitrosomonas europaea [3] was 617 nM. In the data set on Nitrosomonas sp. TK794 [4], the inhibition in vivo at 1 mg/kg was determined as 33.6%.
Turning to `Cc1nc(C(Cl)(Cl)Cl)nc(C(Cl)(Cl)Cl)n1`, the logP in data set [1] stood at 4.07. In the data set with Nitrosomonas europaea [3], the IC50 was 708 nM. In addition, the residual activity at 0.5 mg/kg in the data set with Nitrosomonas europaea [10] is 47.2%. For the same compound, in the data set on Nitrosomonas sp. TK794 [9], the inhibition in vivo at 0.5 mg/kg is 65%.
As to `Clc1cccc(C(Cl)(Cl)Cl)n1` [NITRAPYRIN], the inhibition in vivo at 5 mg/kg in the data set on Nitrosomonas sp. TK794 [6] turned out to be 22.9%. For the same compound, the residual activity at 1 mg/kg in the data set with Nitrosomonas europaea [5] was 30.1%. Also, the IC50 in the data set with Nitrosomonas europaea [3] was 1910 nM.

(Values after ChEMBL document CHEMBL3045179, “Mode of Action and QSAR Studies of Nitrification Inhibitors” (J Pestic Sci, 1997).)
